Results published in patent publication US9029389B2 (Institut Pasteur Korea, priority 2011, dated 2015).

Molecular target: T1, Human 5-lipoxygenase (Homo sapiens, UniProt P09917)
T1 construct: purchased Cayman 60402; host or cells: insect cells
T1 sequence (P09917 1-674): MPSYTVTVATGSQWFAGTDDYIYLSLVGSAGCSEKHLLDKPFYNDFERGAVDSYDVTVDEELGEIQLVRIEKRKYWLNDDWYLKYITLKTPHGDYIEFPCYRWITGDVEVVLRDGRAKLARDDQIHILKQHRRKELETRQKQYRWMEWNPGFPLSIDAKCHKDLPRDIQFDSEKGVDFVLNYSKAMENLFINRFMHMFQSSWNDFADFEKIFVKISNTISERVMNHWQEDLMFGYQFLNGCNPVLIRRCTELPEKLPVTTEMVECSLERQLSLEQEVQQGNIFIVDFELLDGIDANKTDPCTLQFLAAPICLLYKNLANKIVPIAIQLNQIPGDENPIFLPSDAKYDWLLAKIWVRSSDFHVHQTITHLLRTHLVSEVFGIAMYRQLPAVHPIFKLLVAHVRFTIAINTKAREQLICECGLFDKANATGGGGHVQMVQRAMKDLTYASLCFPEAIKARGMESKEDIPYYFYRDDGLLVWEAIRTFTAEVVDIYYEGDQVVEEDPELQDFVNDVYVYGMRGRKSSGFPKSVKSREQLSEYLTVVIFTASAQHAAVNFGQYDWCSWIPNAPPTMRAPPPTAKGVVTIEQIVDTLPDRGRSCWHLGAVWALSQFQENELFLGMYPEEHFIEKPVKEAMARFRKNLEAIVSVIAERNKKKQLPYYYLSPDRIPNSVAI
Experiment: Activity of compounds against 5-LO enzyme (LTB4 measurement and/or fluorescence method)
Assay type: biochemical
Conditions: 5-LO, single concentration of 10 uM in duplicate
How it was run: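 Insect-cell human 5-LO preincubated 15 min at RT with compound (pH 7.4, 2 mM CaCl2, 0.1 mM ATP, 1% DMSO), then 3 uM arachidonic acid for 5 min at 37 °C; LTB4 quantified by EIA and/or LC/MS/MS. Alternatively, fluorescence of 5-HpETE via H2DCFDA, 100 uM ATP, 3 uM arachidonic acid, 5 min, RT; single 10 uM screen then 6- or 11-point IC50.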

Row | SMILES | inhibition at 10 µM [%]
1 | Cc1nc2ccccn2c1C(=O)NCc1ccccc1 [compound 3, N-Benzyl-2-methylimidazo[1,2-a]pyridine-3-carboxamide] | < 40
2 | Cc1nc2ccc(Cl)cn2c1C(=O)NCc1ccccc1 [compound 17, N-Benzyl-6-chloro-2-methylimidazo[1,2-a]pyridine-3-carboxamide] | < 40
3 | CCc1nc2ccc(Cl)cn2c1C(=O)NCc1ccc(N2CCOCC2)cc1 [compound 64] | < 40
4 | CCc1nc2ccc(Cl)cn2c1C(=O)NCc1ccc(N2CCN(c3ccc(F)cc3)CC2)cc1 [compound 148, 6-Chloro-2-ethyl-N-(4-(4-(4-fluorophenyl)piperazin-1-yl)benzyl)imidazo[1,2-a]pyridine-3-carboxamide] | 40 to 69
5 | CCc1nc2cc(Cl)ccn2c1C(=O)NCc1ccc(O)cc1 [compound 88, 7-Chloro-2-ethyl-N-(4-hydroxybenzyl)imidazo[1,2-a]pyridine-3-carboxamide] | < 40
6 | Cc1nc2cc(Cl)ccn2c1C(=O)NCc1ccccc1 [compound 16, N-Benzyl-7-chloro-2-methylimidazo[1,2-a]pyridine-3-carboxamide] | < 40
7 | Cc1nc2ccc(Cl)cn2c1C(=O)NCc1ccc(-c2ccccc2)cc1 [compound 43, N-(Biphenyl-4-ylmethyl)-6-chloro-2-methylimidazo[1,2-a]pyridine-3-carboxamide] | < 40
8 | Cc1ccc2nc(C)c(C(=O)NCc3ccccc3)n2c1 [compound 33, N-Benzyl-2,6-dimethylimidazo[1,2-a]pyridine-3-carboxamide] | < 40
9 | CCc1nc2ccc(Cl)cn2c1C(=O)NCc1ccc(Oc2ccc(OC(F)(F)F)cc2)cc1 [compound 131, 6-Chloro-2-ethyl-N-(4-(4-(trifluoromethoxy)phenoxy)benzyl)imidazo[1,2-a]pyridine-3-carboxamide] | 40 to 69
10 | CCc1nc2ccc(C(F)(F)F)cn2c1C(=O)NCc1ccc(N2CCC(Oc3ccc(OC(F)(F)F)cc3)CC2)cc1 [compound 124, 2-Ethyl-N-(4-(4-(4-(trifluoromethoxy)phenoxy)piperidin-1-yl)benzyl)-6-(trifluoromethyl)imidazo[1,2-a]pyridine-3-carboxamide] | > 69
11 | CCc1nc2ccc(Cl)cn2c1C(=O)NCc1ccc(N2CCC(Oc3ccc(C(F)(F)F)cc3)CC2)cc1 [compound 168, 6-Chloro-2-ethyl-N-(4-(4-(4-(trifluoromethyl)phenoxy)piperidin-1-yl)benzyl)imidazo[1,2-a]pyridine-3-carboxamide] | 40 to 69
12 | CC(C)(C)c1ccc(CNC(=O)c2c(C(F)(F)F)nc3ccc(Cl)cn23)cc1 [compound 81, N-(4-tert-Butylbenzyl)-6-chloro-2-(trifluoromethyl)imidazo[1,2-a]pyridine-3-carboxamide] | < 40
13 | CCCc1nc2ccccn2c1C(=O)NCc1ccccc1 [compound 37, N-Benzyl-2-propylimidazo[1,2-a]pyridine-3-carboxamide] | < 40
14 | Cc1nc2ccccn2c1C(=O)NCC1CCCCC1 [compound 9, N-(Cyclohexylmethyl)-2-methylimidazo[1,2-a]pyridine-3-carboxamide] | < 40
15 | CCc1nc2cc(Cl)ccn2c1C(=O)NCc1ccn(-c2ccc(OC(F)(F)F)cc2)n1 [compound 133, 7-Chloro-2-ethyl-N-((1-(4-(trifluoromethoxy)phenyl)-1H-pyrazol-3-yl)methyl)imidazo[1,2-a]pyridine-3-carboxamide] | 40 to 69
16 | CCc1nc2ccc(Cl)cn2c1C(=O)NCc1ccc(OC(C)C)cc1 [compound 65] | < 40
17 | Cc1nc2cc(Cl)ccn2c1C(=O)NCc1ccc(-c2ccccc2)cc1 [compound 44, N-(Biphenyl-4-ylmethyl)-7-chloro-2-methylimidazo[2-a]pyridine-3-carboxamide] | < 40
18 | Cc1nc2ccccn2c1C(=O)NCCOc1ccccc1 [compound 28, 2-Methyl-N-(2-phenoxyethyl)imidazo[1,2-a]pyridine-3-carboxamide] | < 40
19 | CCc1nc2cc(Cl)ccn2c1C(=O)NCc1ccc(-c2ccc(F)cc2)cc1 [compound 56, 7-Chloro-2-ethyl-N-((4′-fluorobiphenyl-4-yl)methyl)imidazo[1,2-a]pyridine-3-carboxamide] | < 40
20 | Cc1nc2ccccn2c1C(=O)NCc1ccc2[nH]ccc2c1 [compound 21, N-((1H-Indol-5-yl)methyl)-2-methylimidazo[1,2-a]pyridine-3-carboxamide] | < 40
21 | Cc1nc2ccccn2c1C(=O)Nc1ccc(Oc2ccccc2)cc1 [compound 13, 2-Methyl-N-(4-phenoxyphenyl)imidazo[1,2-a]pyridine-3-carboxamide] | < 40
22 | CCc1nc2ccc(Cl)cn2c1C(=O)NCc1ccc(N2CCC(Oc3ccc(Cl)cc3)CC2)cc1 [compound 166, 6-Chloro-N-(4-(4-(4-chlorophenoxy)piperidin-1-yl)benzyl)-2-ethylimidazo[1,2-a]pyridine-3-carboxamide] | 40 to 69
23 | CCc1nc2ccc(Cl)cn2c1C(=O)NCc1ccc(OCC(C)C)cc1 [compound 66] | < 40
24 | CCc1nc2cc(Cl)ccn2c1C(=O)NCc1ccc(N2CCN(C)CC2)cc1 [compound 108, 7-Chloro-2-ethyl-N-(4-(4-methylpiperazin-1-yl)benzyl)imidazo[1,2-a]pyridine-3-carboxamide] | < 40

Now from value to molecule:

Row | inhibition at 10 µM [%] | SMILES
25 | < 40 | CCc1nc2ccc(Cl)cn2c1C(=O)N1CCC(OCc2cccc(F)c2)CC1 [compound 336, (6-chloro-2-ethylimidazo[1,2-a]pyridin-3-yl)(4-((3-fluorobenzyl)oxy)piperidin-1-yl)methanone]
26 | < 40 | CCc1nc2ccc(Cl)cn2c1C(=O)N1CCC(Cn2cc(C(O)(CC)C(F)(F)F)nn2)CC1 (centres unmarked) [compound 350, (6-chloro-2-ethylimidazo[1,2-a]pyridin-3-yl)(4-((4-(1,1,1-trifluoro-2-hydroxybutan-2-yl)-1H-1,2,3-triazol-1-yl)methyl)piperidin-1-yl)methanone]
27 | < 40 | CCc1nc2ccc(Cl)cn2c1CNCCc1ccncc1 [compound 344, N-((6-chloro-2-ethylimidazo[1,2-a]pyridin-3-yl)methyl)-2-(pyridin-4-yl)ethanamine]
28 | < 40 | CCc1nc2ccc(Cl)cn2c1CNCc1ccc(N2CCC(O)CC2)cc1 [compound 340, 1-(4-((((6-chloro-2-ethylimidazo[1,2-a]pyridin-3-yl)methyl)amino)methyl)phenyl)piperidin-4-ol]
29 | < 40 | CCc1nc2cc(Cl)ccn2c1C(=O)NCc1ccc2[nH]c(CN3CCOCC3)nc2c1 [compound 196, 7-Chloro-2-ethyl-N-((2-(morpholinomethyl)-1H-benzo[d]imidazol-5-yl)methyl)imidazo[1,2-a]pyridine-3-carboxamide]
30 | 40 to 69 | CCc1nc2ccc(Cl)cn2c1C(=O)NCc1ccc(N2CCC(Oc3ccc(F)cc3)CC2)cc1 [compound 308, 6-Chloro-2-ethyl-N-(4-(4-(4-fluorophenoxy)piperidin-1-yl)benzyl)imidazo[1,2-a]pyridine-3-carboxamide]
31 | < 40 | CCc1nc2c(-c3ccncc3)cccn2c1C(=O)NCc1ccc(N2CCN(c3ccc(F)cc3)CC2)cc1 [compound 283, 2-Ethyl-N-(4-(4-(4-fluorophenyl)piperazin-1-yl)benzyl)-8-(pyridin-4-yl)imidazo[1,2-a]pyridine-3-carboxamide]
32 | < 40 | CCc1nc2ccc(Cl)cn2c1C(=O)NCc1ccc(N2CCC(OCc3ccccc3)CC2)cc1 [compound 317, N-(4-(4-(benzyloxy)piperidin-1-yl)benzyl)-6-chloro-2-ethylimidazo[1,2-a]pyridine-3-carboxamide]
33 | < 40 | CCc1nc2cc(Cl)ccn2c1C(=O)NCc1ccc(OCc2ccc(OC(F)(F)F)cc2)cc1 [compound 171]
34 | < 40 | CCc1nc2ccc(Cl)cn2c1CNCc1ccc(F)cc1 [compound 338, 1-(6-chloro-2-ethylimidazo[1,2-a]pyridin-3-yl)-N-(4-fluorobenzyl)methanamine]
35 | < 40 | CCc1nc2cc(Cl)ccn2c1C(=O)NCc1ccc(N2CCC(C(=O)N(C)C)CC2)cc1 [compound 294, 7-Chloro-N-(4-(4-(dimethylcarbamoyl)piperidin-1-yl)benzyl)-2-ethylimidazo[1,2-a]pyridine-3-carboxamide]
36 | 40 to 69 | CCc1nc2cc(Cl)ccn2c1C(=O)NCc1ccc(N2CCC(Oc3ccc(C(F)(F)F)cc3)CC2)cc1 [compound 169, 7-Chloro-2-ethyl-N-(4-(4-(4-(trifluoromethyl)phenoxy)piperidin-1-yl)benzyl)imidazo[1,2-a]pyridine-3-carboxamide]

Same assay, conditions: 6 or 11 point dose response in duplicate

Row | IC50 [µM] | SMILES
37 | 1 to 20 | CCc1nc2ccc(Cl)cn2c1C(=O)NCc1ccc(N2CCN(c3ccc(F)cc3)CC2)cc1 [compound 148, 6-Chloro-2-ethyl-N-(4-(4-(4-fluorophenyl)piperazin-1-yl)benzyl)imidazo[1,2-a]pyridine-3-carboxamide]
38 | 1 to 20 | CCc1nc2ccc(C(F)(F)F)cn2c1C(=O)NCc1ccc(N2CCC(Oc3ccc(OC(F)(F)F)cc3)CC2)cc1 [compound 124, 2-Ethyl-N-(4-(4-(4-(trifluoromethoxy)phenoxy)piperidin-1-yl)benzyl)-6-(trifluoromethyl)imidazo[1,2-a]pyridine-3-carboxamide]
